Measurements as given in patent publication US12503473B2, “Triazolopyrimidine compounds and their use in treating cancer” (Dizal (Jiangsu) Pharmaceutical Co., Ltd., priority 2018, dated 2025).

Legend:
[1] = test system: NCI H358 subcutaneous xenograft; experiment: Human lung cancer xenograft model, VEGFR TKI combination; type: in vivo, female nude mice
Description: The in vivo efficacy of MCT4 inhibitors has been tested in human xenograft models. The NSCLC cell line NCI H358 can be grown as a subcutaneous xenograft in female nude mice and tumour volume calculated from bilateral caliper measurements. For efficacy studies three million NCI H358 cells were inoculated sub-cutaneously onto the left flank of the animal in a volume of 0.1 ml serum free media (RPMI) and matrigel. Animals were assigned into treatment groups 14 days after cell implantation and received either AZD2171 (3 mg/kg QD) (Wedge et al., (2005) Cancer Res. 65:4389-4400), a compound of Formula (I) (100 mg/kg BID) or the combination of both by oral gavage. A vehicle control of 0.5% hydroxy propyl methyl cellulose/0.1% Tween 80 was dosed twice daily given orally. Dosing was continued for 17 days and tumour volume, body weight and tumour condition were recorded twice weekly for the duration of the study.

[2] = test system: MC38 MCT1 KO murine colorectal cell line; experiment: Mouse syngeneic model, αPD-1 antibody combination (second study, FIG. 5); type: in vivo, female C57·B16 mice; conditions: Day 13
Excerpt: The in vivo efficacy of MCT4 inhibitors has been tested in murine syngeneic models. To test the selective impact of MCT4 inhibitors of Formula (I), MCT1 was knocked-out (KO) of the MC38 syngeneic cell line model using CRISPR precise genome editing. The MC38 MCT1 KO murine colorectal cell line can be grown sub-cutaneously in female C57·B16 mice and tumour volume calculated from bilateral caliper measurements. For efficacy studies, ten million cells were inoculated subcutaneously onto the left flank of the animal in a volume of 0.1 ml serum free DMEM media. Animals were randomised by bodyweight at the time of cell implantation and treatment started the following day. […] In both studies dosing was continued for up to 6 weeks and tumour volume, body weight and tumour condition were recorded three times weekly. […]
Again, individual tumour growth profiles are shown with animals taken off study using time to event criteria based on a maximum tumour volume of 1.5 cm^3, tumour condition or animal welfare limits. Due to animals reaching the time to event endpoint at different times during the later stages of the experiment GeoMean percentage inhibition values were calculated on Day 13.

[3] = test system: MC38 MCT1 KO murine colorectal cell line; experiment: Mouse syngeneic model, αCTLA4 antibody combination (first study, FIG. 4); type: in vivo, female C57·B16 mice; conditions: Day 15
Excerpt: The in vivo efficacy of MCT4 inhibitors has been tested in murine syngeneic models. To test the selective impact of MCT4 inhibitors of Formula (I), MCT1 was knocked-out (KO) of the MC38 syngeneic cell line model using CRISPR precise genome editing. The MC38 MCT1 KO murine colorectal cell line can be grown sub-cutaneously in female C57·B16 mice and tumour volume calculated from bilateral caliper measurements. For efficacy studies, ten million cells were inoculated subcutaneously onto the left flank of the animal in a volume of 0.1 ml serum free DMEM media. Animals were randomised by bodyweight at the time of cell implantation and treatment started the following day. In the first of these studies shown in FIG. 4, monotherapy treatment arms received either a compound of Formula (I) (100 mg/kg BID) by oral gavage or αCTLA4 antibody (anti-CTLA-4 9D9 mlgG1 antibody, described in WO200712373) (10 mg/kg twice weekly) intraperitoneally. Combination groups consisted of a compound of Formula (I) (100 or 10 mg/kg PO BID) with αCTLA4 antibody (10 mg/kg IP twice weekly). In the second of these studies shown in FIG. 5, monotherapy treatment arms received either a compound of Formula (I) (30 mg/kg PO BID) with αPD-1 antibody (from Bio X Cell, Catalogue #BE0146, Lot 665417s1, 6.78 mg/mL) (10 mg/kg IP twice weekly). In both studies dosing was continued for up to 6 weeks and tumour volume, body weight and tumour condition were recorded three times weekly. Vehicle was 0.5% hydroxy propyl methyl cellulose/0.1% Tween 80 given twice daily by oral gavage with PBS/a given twice weekly intraperitoneally in both studies.
Individual tumour growth profiles are shown with animals taken off study using time to event criteria based on a maximum tumour volume of 1.5 cm^3, tumour condition or animal welfare limits. Due to animals coming off study during the later stages of the experiment, GeoMean percentage inhibition values were calculated on Day 15. […] Monotherapy αCTLA4 (10 mg/kg) was ineffective with 6.1%^NS.

MCT1 = target: T1, MCT1 (Homo sapiens, UniProt P53985); experiment: Assay (c): FLIPR BCECF lactate influx in K562 cells; type: cell-based; conditions: mean of at least three repeats, read-out: MCT1 FLIPR pIC50 (K562) (converted)
T1 construct: a human erythroleukemia line predominantly expressing MCT1, a small amount of MCT2 and no MCT4; host or cells: K562
T1 sequence (P53985 1-500): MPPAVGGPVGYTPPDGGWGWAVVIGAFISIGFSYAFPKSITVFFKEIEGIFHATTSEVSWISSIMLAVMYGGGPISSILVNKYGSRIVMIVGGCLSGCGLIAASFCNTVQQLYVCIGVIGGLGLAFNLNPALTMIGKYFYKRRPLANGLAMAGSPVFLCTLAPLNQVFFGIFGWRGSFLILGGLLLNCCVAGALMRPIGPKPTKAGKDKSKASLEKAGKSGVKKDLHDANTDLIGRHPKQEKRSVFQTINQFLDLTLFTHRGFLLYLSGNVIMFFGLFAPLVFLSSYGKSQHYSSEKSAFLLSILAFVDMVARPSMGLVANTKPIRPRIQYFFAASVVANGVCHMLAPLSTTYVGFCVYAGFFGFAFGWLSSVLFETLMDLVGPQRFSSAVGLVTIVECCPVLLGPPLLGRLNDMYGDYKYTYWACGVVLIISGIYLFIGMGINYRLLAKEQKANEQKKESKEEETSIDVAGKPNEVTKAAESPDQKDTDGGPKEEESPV
Description: Cells were loaded with the pH sensitive dye BCECFAM(Invitrogen #B11150) before being washed to remove excess dye and seeded into the assay plates—directly onto the test compound—at a density of 15,000 cells/well (NCI—H358) or 30,000 cells/well (K562), in 30 μl HBSS with 1 mM [final] […] Assay plates were lidded and spun in a plate centrifuge at 170 g for 1 minute. Plates were then wrapped in foil and incubated in the dark for 1 hour at room temperature.
Following incubation with test compound, 10 μl of 25 mM Sodium-L-Lactate (Sigma #L7022) made up in HBSS with 1 mM [final] […] This addition was performed directly on the FLIPR Tetra platform (Molecular Devices) as part of a real-time kinetic read protocol. […] A percentage change from base-line was calculated for each test well and values normalised to control wells—treated with either DMSO (maximum assay signal) or chemistry related to that described in this patent (minimum assay signal)—before fitting concentration response curves to determine an IC50 value.

Row | Structure (SMILES) | tumour regression compared to the vehicle group ([1]; AZD2171 alone 3 mg/kg QD oral, 17 days dosing, p<0.001) [%] | tumour regression ([1]; combination of AZD2171 (3 mg/kg QD) with Example 62 (100 mg/kg BID), oral, 17 days, p<0.001 vs control, p=0.013 vs AZD2171 alone) [%] | GeoMean percentage growth inhibition vs vehicle control ([2]; Example 62 30 mg/kg PO BID with αPD-1 antibody 10 mg/kg IP twice weekly, p≤0.001) [%] | GeoMean percentage growth inhibition vs vehicle control ([2]; Example 62 monotherapy 30 mg/kg PO BID, NS) [%] | GeoMean percentage growth inhibition vs vehicle control ([3]; Example 62 10 mg/kg PO BID with αCTLA4 antibody 10 mg/kg IP twice weekly, p≤0.01) [%] | GeoMean percentage growth inhibition vs vehicle control ([3]; Example 62 100 mg/kg PO BID with αCTLA4 antibody 10 mg/kg IP twice weekly, p≤0.001, p=0.0311 vs Example 62 alone) [%] | GeoMean percentage growth inhibition vs vehicle control ([3]; Example 62 monotherapy 100 mg/kg BID PO, p≤0.05) [%] | IC50 (MCT1) [µM]
1 | COc1cc2c(Oc3ccc4[nH]c(C)cc4c3F)ncnc2cc1OCCCN1CCCC1 [AZD2171, reference compound] | 33 |  |  |  |  |  |  | 
2 | Cc1nc2nc(C)c(O[C@@H]3CCN(c4ccc(-c5ccc(CN6CCOCC6)nn5)cc4)C3)c(C)n2n1 [Example 62, (R)-4-((6-(4-(3-((2,5,7-trimethyl-[1,2,4]triazolo[1,5-a]pyrimidin-6-yl)oxy)pyrrolidin-1-yl)phenyl)pyridazin-3-yl)methyl)morpholine] |  | 72 | 82.3 | 30.1 | 67.4 | 82.2 | 60.0 | > 25.1
